Data from US20240336574A1 (LATIGO BIOTHERAPEUTICS, INC., priority 2021, published 2024).
Read-outs that look alike come from different tables or passages of the source.

Molecular target: T1, recombinant human NaV1.8 stably transfected HEK cells (Homo sapiens, UniProt Q9Y5Y9)
T1 construct: expressed in transfected cells; host or cells: HEK cells, stably transfected
Assay: Compound profiling on NaV1.8, human NaV1.8 cell line, SyncroPatch384PE automated patch clamp assay (Example 102, first set of compounds, Table 16)
Format: cell-based
Conditions: human NaV1.8 HEK cells, Table 16 (first set of compounds)
Summary of the method: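 Automated whole-cell patch clamp on HEK cells precultured at 30 °C one day before recording; CsF-based internal, 140 mM NaCl external. 10-point curve, 20–0.001 μM final, 0.1% DMSO, 5 min exposure. IC50 for resting (P1, −120 mV hold) and inactivated (P2, after 10 s at −40 mV) block, normalized to 250 μM tetracaine and DMSO.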

[1] = inactivated state block (P2 measurement), read-out: P2IC50
[2] = resting state block (P1 measurement), read-out: P1IC50

T1 sequence (Q9Y5Y9 whole entry): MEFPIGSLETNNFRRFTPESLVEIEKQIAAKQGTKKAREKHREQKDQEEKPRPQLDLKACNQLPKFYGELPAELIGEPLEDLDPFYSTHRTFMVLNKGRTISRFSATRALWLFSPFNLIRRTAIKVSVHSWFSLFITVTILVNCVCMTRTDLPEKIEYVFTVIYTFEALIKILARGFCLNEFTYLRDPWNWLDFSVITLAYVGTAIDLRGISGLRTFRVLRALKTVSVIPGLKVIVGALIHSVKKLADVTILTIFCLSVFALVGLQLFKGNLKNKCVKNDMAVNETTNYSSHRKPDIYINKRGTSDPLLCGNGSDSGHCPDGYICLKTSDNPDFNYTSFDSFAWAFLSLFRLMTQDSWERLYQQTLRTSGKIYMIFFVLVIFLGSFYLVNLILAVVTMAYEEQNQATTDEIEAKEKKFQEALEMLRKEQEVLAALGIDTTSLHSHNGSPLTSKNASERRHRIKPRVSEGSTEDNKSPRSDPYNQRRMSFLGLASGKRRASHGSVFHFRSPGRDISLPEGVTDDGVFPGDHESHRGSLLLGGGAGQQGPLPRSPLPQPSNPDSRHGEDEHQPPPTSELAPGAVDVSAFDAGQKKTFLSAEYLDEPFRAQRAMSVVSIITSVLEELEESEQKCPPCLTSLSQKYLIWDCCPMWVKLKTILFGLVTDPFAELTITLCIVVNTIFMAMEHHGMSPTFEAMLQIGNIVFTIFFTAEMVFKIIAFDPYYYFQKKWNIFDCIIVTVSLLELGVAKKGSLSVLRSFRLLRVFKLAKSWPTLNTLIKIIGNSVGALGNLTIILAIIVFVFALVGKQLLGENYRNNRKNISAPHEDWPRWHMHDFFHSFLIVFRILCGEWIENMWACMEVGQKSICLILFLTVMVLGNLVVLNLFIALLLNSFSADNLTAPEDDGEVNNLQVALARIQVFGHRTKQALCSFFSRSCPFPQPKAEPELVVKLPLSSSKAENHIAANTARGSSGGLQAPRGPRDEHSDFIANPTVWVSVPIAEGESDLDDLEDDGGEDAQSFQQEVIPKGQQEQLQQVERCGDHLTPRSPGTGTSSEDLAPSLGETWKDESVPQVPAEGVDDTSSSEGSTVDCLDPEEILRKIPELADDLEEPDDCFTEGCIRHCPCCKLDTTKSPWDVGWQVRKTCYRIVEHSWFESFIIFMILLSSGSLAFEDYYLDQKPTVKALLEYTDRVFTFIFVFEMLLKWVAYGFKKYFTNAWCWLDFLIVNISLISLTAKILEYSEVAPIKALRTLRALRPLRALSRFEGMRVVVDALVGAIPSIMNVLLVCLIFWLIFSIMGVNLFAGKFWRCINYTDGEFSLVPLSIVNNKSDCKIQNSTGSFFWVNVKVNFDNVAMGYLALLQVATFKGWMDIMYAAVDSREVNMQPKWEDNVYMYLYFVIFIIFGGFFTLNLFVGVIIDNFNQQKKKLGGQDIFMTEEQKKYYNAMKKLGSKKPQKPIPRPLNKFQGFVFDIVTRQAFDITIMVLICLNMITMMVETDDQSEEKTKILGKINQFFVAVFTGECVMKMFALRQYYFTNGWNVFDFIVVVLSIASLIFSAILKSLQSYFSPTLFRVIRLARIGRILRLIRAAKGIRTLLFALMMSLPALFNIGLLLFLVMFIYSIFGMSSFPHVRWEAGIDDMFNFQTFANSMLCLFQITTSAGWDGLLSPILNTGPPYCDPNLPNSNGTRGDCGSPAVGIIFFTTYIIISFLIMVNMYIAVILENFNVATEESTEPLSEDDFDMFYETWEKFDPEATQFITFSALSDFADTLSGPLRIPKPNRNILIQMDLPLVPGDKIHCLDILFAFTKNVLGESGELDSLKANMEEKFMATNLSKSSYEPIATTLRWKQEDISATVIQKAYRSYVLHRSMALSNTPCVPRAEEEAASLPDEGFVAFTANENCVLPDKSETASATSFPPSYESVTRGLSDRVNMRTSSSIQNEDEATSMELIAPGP

| IC50 [1] [µM] | IC50 [2] [µM] | Compound |
| --- | --- | --- |
| 0.2 to 0.5 | 0.2 to 0.5 | COc1cc(C#N)ccc1Oc1ncc(C(F)(F)F)cc1C(=O)NC12CC(C(N)=O)(C1)C2 [Compound 1721, N-(3-carbamoyl-1-bicyclo[1.1.1]pentanyl)-2-(4-cyano-2-methoxy-phenoxy)-5-(trifluoromethyl)pyridine-3-carboxamide] |
| 0.2 to 0.5 | 0.2 to 0.5 | Cn1ccc2c(Oc3ncc(C(F)(F)F)cc3C(=O)Nc3cccc(S(C)(=O)=O)c3)cccc21 [Compound 1624] |
| 0.2 to 0.5 | 0.2 to 0.5 | CS(=O)(=O)c1cccc(NC(=O)c2cc(C(F)(F)F)cnc2OCC2CCC2(F)F)c1 (stereo not shown) [Compound 1605] |
| 0.2 to 0.5 | 0.2 to 0.5 | NC(=O)c1cccc(NC(=O)c2cc(C(F)(F)F)cnc2OC23CC(C(F)(F)F)(C2)C3)c1 [Compound 1634] |
| ≤ 0.02 | ≤ 0.02 | CC(C)Oc1ccc(Oc2ncc(C(F)(F)F)cc2C(=O)Nc2cccc(S(C)(=N)=O)c2)c(F)c1F (stereo not shown) [Compound 1707] |
| 0.2 to 0.5 | 0.2 to 0.5 | Cc1cc(F)ccc1Oc1nnc(C(F)(F)F)c(-c2cnn(C)c2)c1C(=O)Nc1cccc([S@@](C)(=N)=O)c1 [Compound 1521, (S)-3-(4-fluoro-2-methylphenoxy)-5-(1-methyl-1H-pyrazol-4-yl)-N-(3-(S-methylsulfonimidoyl)phenyl)-6-(trifluoromethyl)pyridazine-4-carboxamide] |
| 0.2 to 0.5 | 0.2 to 0.5 | CSc1cccc(NC(=O)c2cc(C#N)cnc2Oc2ccc(F)cc2C)c1 [Compound 1579] |
| ≤ 0.02 | ≤ 0.02 | COc1c(Oc2nnc(C(F)(F)F)c(C)c2C(=O)Nc2cccc(S(C)(=O)=O)c2)ccc(F)c1F [Compound 1425] |
| 0.02 to 0.04 | 0.02 to 0.04 | COc1cc(C#N)ccc1Oc1nnc(-c2ccc(C#N)cc2)c(C)c1C(=O)Nc1cccc(S(C)(=N)=O)c1 (stereo not shown) [Compound 1446, 3-(4-cyano-2-methoxy-phenoxy)-6-(4-cyanophenyl)-5-methyl-N-[3-(methylsulfonimidoyl)phenyl]pyridazine-4-carboxamide] |
| 0.2 to 0.5 | 0.2 to 0.5 | Cc1cc(C#N)ncc1Oc1ncc(C(F)(F)F)cc1C(=O)Nc1cccc(S(C)(=O)=O)c1 [Compound 1694] |
| 0.2 to 0.5 | 0.2 to 0.5 | CS(=O)(=O)c1cccc(NC(=O)c2cc(C(F)(F)F)cnc2OC2CCC(=O)NC2)c1 (stereo not shown) [Compound 1606] |
| ≤ 0.02 | ≤ 0.02 | CN=S(C)(=O)c1cccc(NC(=O)c2cc(C(F)(F)F)cnc2Oc2ccc(F)cc2C)c1 (stereo not shown) [Compound 1717, N-[3-(N,S-dimethylsulfonimidoyl)phenyl]-2-(4-fluoro-2-methyl-phenoxy)-5-(trifluoromethyl)pyridine-3-carboxamide] |
| ≤ 0.02 | ≤ 0.02 | Cc1nc(F)ccc1Oc1ncc(C(F)(F)F)c(C)c1C(=O)Nc1cccc([S@](C)(=N)=O)c1 [Compound 1559, (R)-2-((6-fluoro-2-methylpyridin-3-yl)oxy)-4-methyl-N-(3-(S-methylsulfonimidoyl)phenyl)-5-(trifluoromethyl)nicotinamide] |
| 0.2 to 0.5 | 0.2 to 0.5 | COc1cc(C#N)ccc1Oc1ncc(C2=CCOCC2)cc1C(=O)Nc1cccc(S(C)(=N)=O)c1 (stereo not shown) [Compound 1726, 2-(4-cyano-2-methoxy-phenoxy)-5-(3,6-dihydro-2H-pyran-4-yl)-N-[3-(methylsulfonimidoyl)phenyl]pyridine-3-carboxamide] |
| ≤ 0.02 | ≤ 0.02 | COc1c(Oc2nc(C(F)(F)F)ccc2C(=O)Nc2cccc(S(C)(=N)=O)c2)ccc(F)c1F (stereo not shown) [Compound 1729, 2-(3,4-difluoro-2-methoxy-phenoxy)-N-[3-(methylsulfonimidoyl)phenyl]-6-(trifluoromethyl)pyridine-3-carboxamide] |
| 0.04 to 0.2 | 0.04 to 0.2 | CS(=N)(=O)c1cccc(NC(=O)c2cc(C(F)(F)F)cnc2Oc2ccc(OC(F)F)nc2)c1 (stereo not shown) [Compound 1646] |
| 0.2 to 0.5 | 0.2 to 0.5 | COc1cc(C#N)ccc1Oc1nnc(-c2ccn(C)n2)c(C)c1C(=O)Nc1cccc(S(C)(=N)=O)c1 (stereo not shown) [Compound 1448, 3-(4-cyano-2-methoxy-phenoxy)-5-methyl-6-(1-methylpyrazol-3-yl)-N-[3-(methylsulfonimidoyl)phenyl]pyridazine-4-carboxamide] |
| ≤ 0.02 | ≤ 0.02 | COc1nc(Br)ccc1Oc1ncc(C(F)(F)F)cc1C(=O)Nc1cccc(S(C)(=O)=O)c1 [Compound 1603] |
| 0.2 to 0.5 | 0.2 to 0.5 | Cc1nn(C)cc1Oc1ncc(C(F)(F)F)cc1C(=O)Nc1cccc(S(C)(=N)=O)c1 (stereo not shown) [Compound 1590] |

| IC50 [1] [µM] | IC50 [2] [µM] | Compound |
| --- | --- | --- |
| ≤ 0.02 | ≤ 0.02 | Cc1cc(F)ccc1Oc1ncc(C(F)(F)F)cc1C(=O)Nc1cccc(S(C)(=O)=O)c1 [Compound 1574, 2-(4-fluoro-2-methyl-phenoxy)-N-(3-methylsulfonylphenyl)-5-(trifluoromethyl)pyridine-3-carboxamide] |
| 0.04 to 0.2 | 0.04 to 0.2 | COc1ccc(Oc2nnc(C(F)(F)F)c(C)c2C(=O)Nc2cccc(S(C)(=O)=O)c2)c(C)n1 [Compound 1428] |
| ≤ 0.02 | ≤ 0.02 | Cc1cc(F)ccc1Oc1ncc(Cl)c(C)c1C(=O)Nc1cccc(S(C)(=N)=O)c1 (stereo not shown) [Compound 1558, 5-chloro-2-(4-fluoro-2-methylphenoxy)-4-methyl-N-(3-(S-methylsulfonimidoyl)phenyl)nicotinamide] |
| ≤ 0.02 | ≤ 0.02 | Cc1nc(Br)ccc1Oc1nnc(C(F)(F)F)c(C)c1C(=O)Nc1cccc(S(C)(=O)=O)c1 [Compound 1469, 3-[(6-bromo-2-methylpyridin-3-yl)oxy]-N-(3-methanesulfonylphenyl)-5-methyl-6-(trifluoromethyl)pyridazine-4-carboxamide] |
| 0.04 to 0.2 | 0.04 to 0.2 | COc1ccc(-c2nnc(Oc3ccc(C#N)cc3OC)c(C(=O)Nc3cccc([S@@](C)(=N)=O)c3)c2C)cc1 [Compound 1536, 3-(4-cyano-2-methoxyphenoxy)-N-{3-[(S)-imino(methyl)oxo-λ^6-sulfanyl]phenyl}-6-(4-methoxyphenyl)-5-methylpyridazine-4-carboxamide] |
| ≤ 0.02 | ≤ 0.02 | Cc1cc(C#N)ccc1Oc1nnc(C(F)(F)F)c(C)c1C(=O)Nc1cccc([S@](C)(=N)=O)c1 [Compound 1526, 3-(4-cyano-2-methylphenoxy)-N-{3-[(R)-imino(methyl)oxo-λ^6-sulfanyl]phenyl}-5-methyl-6-(trifluoromethyl)pyridazine-4-carboxamide] |
| 0.2 to 0.5 | 0.2 to 0.5 | CS(=O)(=O)c1cccc(NC(=O)c2cc(C(F)(F)F)cnc2OCC2CC2)c1 [Compound 1602] |
| 0.2 to 0.5 | 0.2 to 0.5 | CS(=O)(=O)c1cccc(NC(=O)c2cc(C(F)(F)F)cnc2Oc2ccc(C#N)nc2)c1 [Compound 1703] |
| ≤ 0.02 | ≤ 0.02 | COc1c(Oc2ncc(C(F)(F)F)cc2C(=O)Nc2cccc(S(C)(=N)=O)c2)ccc(F)c1F (stereo not shown) [Compound 1630] |
| ≤ 0.02 | ≤ 0.02 | Cc1c(C(F)(F)F)nnc(Oc2ccc(OC(F)F)c(F)c2F)c1C(=O)Nc1cccc(S(C)(=N)=O)c1 (single isomer, unassigned) [Compound 1511, 3-[4-(difluoromethoxy)-2,3-difluorophenoxy]-N-{3-[imino(methyl)oxo-λ^6-sulfanyl]phenyl}-5-methyl-6-(trifluoromethyl)pyridazine-4-carboxamide] |
| 0.2 to 0.5 | 0.2 to 0.5 | Cc1cc(F)ccc1Oc1nnc(C(F)(F)F)c(-c2ccccc2)c1C(=O)Nc1cccc([S@@](C)(=N)=O)c1 [Compound 1520, (S)-3-(4-fluoro-2-methylphenoxy)-N-(3-(S-methylsulfonimidoyl)phenyl)-5-phenyl-6-(trifluoromethyl)pyridazine-4-carboxamide] |
| 0.2 to 0.5 | 0.2 to 0.5 | CS(=N)(=O)c1cccc(NC(=O)c2cc(C(F)(F)F)cnc2OC2CC3C(C2)C3(F)F)c1 (stereo not shown) [Compound 1672] |
| 0.04 to 0.2 | 0.04 to 0.2 | COc1cc(C#N)ccc1Oc1nnc(-c2ccc(C#N)cc2)c(C)c1C(=O)Nc1cccc([S@@](C)(=N)=O)c1 [Compound 1532, 3-(4-cyano-2-methoxyphenoxy)-6-(4-cyanophenyl)-N-{3-[(S)-imino(methyl)oxo-λ^6-sulfanyl]phenyl}-5-methylpyridazine-4-carboxamide] |
| ≤ 0.02 | ≤ 0.02 | COc1c(Oc2ncc(Br)cc2C(=O)Nc2cccc(S(C)(=N)=O)c2)ccc(F)c1F (stereo not shown) [Compound 1567, 5-bromo-2-(3,4-difluoro-2-methoxy-phenoxy)-N-[3-(methylsulfonimidoyl)phenyl]pyridine-3-carboxamide] |
| 0.2 to 0.5 | 0.2 to 0.5 | CC(C#N)Oc1cc(F)c(Oc2ncc(C(F)(F)F)cc2C(=O)Nc2ccc(C(N)=O)cc2)cc1F (stereo not shown) [Compound 1688] |
| 0.2 to 0.5 | 0.2 to 0.5 | CC(C#N)Oc1cc(F)c(Oc2ncc(C(F)(F)F)cc2C(=O)Nc2cccc(C(N)=O)c2)cc1F (stereo not shown) [Compound 1687] |
| 0.04 to 0.2 | 0.04 to 0.2 | CS(=O)(=O)c1cccc(NC(=O)c2cc(C(F)(F)F)cnc2OC2CCC(F)(F)CC2)c1 [Compound 1660] |
| ≤ 0.02 | ≤ 0.02 | Cc1c(C(F)(F)F)nnc(Oc2ccc(OC(C)C)c(F)c2F)c1C(=O)Nc1cccc(S(C)(=N)=O)c1 (single isomer, unassigned) [Compound 1502, 3-(2,3-difluoro-4-isopropoxyphenoxy)-5-methyl-N-(3-(S-methylsulfonimidoyl)phenyl)-6-(trifluoromethyl)pyridazine-4-carboxamide] |

| Compound | IC50 [1] [µM] | IC50 [2] [µM] |
| --- | --- | --- |
| Cc1nc(OC2CCC2)ccc1Oc1ncc(C(F)(F)F)cc1C(=O)Nc1cccc(C(N)=O)c1 [Compound 1565, N-(3-carbamoylphenyl)-2-[[6-(cyclobutoxy)-2-methyl-3-pyridyl]oxy]-5-(trifluoromethyl)pyridine-3-carboxamide] | 0.2 to 0.5 | 0.2 to 0.5 |
